The text below walks through data of article PMC9775191, “A Subset Screen of the Compounds Australia Scaffold Library Identifies 7-Acylaminodibenzoxazepinones as Potent and Selective Hits for Anti-Giardia Drug Discovery” (Biomedicines, 2022).

The structures appear in SMILES notation. Read-outs that look alike come from different tables or passages of the source.

Test [1] deals with Giardia infections. Particulars: cited from earlier work; for clinical failure rates: 5-nitroimidazoles.
The test system of test [2] is Neonatal foreskin fibroblast (NFF) cells. Briefly: Mammalian cell cytotoxicity assay (sulforhodamine B). In kind it is cell-based, human. Particulars: for inhibition at 20 µM: ±SD; for SI (48h Gd): Table S2, NFF vs 48 h Giardia IC50. In a few lines: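 Dose–response from a top concentration of 100 µM was run on NFF cells, with sulforhodamine B as the viability read-out. Plates included media, no-compound, DMSO and chloroquine controls. Fibroblast IC50 was divided by the G. duodenalis BRIS/91/HEPU/1279 IC50 to give the selectivity index.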

Test [3] relates to G. duodenalis BRIS/91/HEPU/1279. Description: Giardia dose response assay, assemblage B. In kind it is cell-based, Giardia duodenalis. Particulars: Giardia duodenalis, ±SD, max 10 µM. In a few lines: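 Assemblage B trophozoites (BRIS/91/HEPU/1279, 1.5 × 10^4 parasites/well) faced 8–12-point doubling dilutions in duplicate, incubated 48 h at 37 °C under 3% O2, 5% CO2 in N2. Parasites were imaged and counted at 24 and 48 h. Growth inhibition was taken versus vehicle controls minus background, with IC50 by log-linear interpolation.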

Test [4] has as its system Acinetobacter baumannii (ATCC 19606). Briefly: Anti-bacterial activity assay. It is filed as cell-based. Particulars: ATCC19606, 50 µM. The essentials:
(§1)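 Compounds tested once at 50 µM in duplicate against mid-log cultures at 5 × 10^5 CFU/mL, incubated 18 h at 37 °C without shaking. Growth read by absorbance at 600 nm; percentage inhibition calculated relative to bacteria-only wells. Vancomycin (Gram-positive) and colistin (Gram-negative) served as plate controls.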

Test [5] concerns methicillin resistant Staphylococcus aureus (ATCC 43300). Description: Anti-bacterial activity assay. It is filed as cell-based. Particulars: Staphylococcus aureus, ATCC43300, 50 µM; read-out: Bacterial Inhibition S. aureus. In a few lines:
as §1

In test [6] the test system is Klebsiella pneumoniae (ATCC 700603). Briefly: Anti-bacterial activity assay. It is filed as cell-based. Particulars: ATCC700603, 50 µM, read-out: Bacterial Inhibition K. pneumoniae. In a few lines:
as §1

For test [7], the system named is Escherichia coli (ATCC 25922). Briefly: Anti-bacterial activity assay. It is filed as cell-based. Particulars: Escherichia coli, ATCC25922, 50 µM; read-out: Bacterial Inhibition E. coli. In a few lines:
as §1

The test system of test [8] is G. duodenalis BRIS/91/HEPU/1279. Description: Primary Giardia screen at 10 µM (live-cell imaging, automated counting). It is filed as cell-based, Giardia duodenalis. Particulars: Giardia duodenalis. In a few lines:
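Singlicate, 10 μM final, 0.2% DMSO; sealed chambers, 3% O2/5% CO2/N2. Counts by live-cell imaging at 24 h and 48 h. % growth vs vehicle, media background subtracted; Z' per plate.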

Where [9] appears, read: 24 h, read-out: G. duodenalis IC50 24h, Table S2, 24 h.
Where [10] appears, read: 48 h, Table S2, 48 h, read-out: G. duodenalis IC50 48h.
Where [11] appears, read: 24 h, first singlicate assay, read-out: % Inhibition n=1 24h.
The mark [12] stands for this setting: 24 h, re-assessment, read-out: % Inhibition n=2 24h.
The mark [13] stands for this setting: 24 h, read-out: Average % Inhibition 24h.
Setting [14] is: 48 h, first singlicate assay, read-out: % Inhibition n=1 48h.
Setting [15] is: 48 h, re-assessment, read-out: % Inhibition n=2 48h.
Setting [16] is: 48 h, read-out: Average % Inhibition 48h.

In the case of `CCCSc1ccc2nc(NC(=O)OC)[nH]c2c1` [Albendazole], in test [1], the treatment efficacy rates was 25–90%.

As for `Cc1ncc([N+](=O)[O-])n1CCO` [Metronidazole, reference compound], the IC50 (usually the concentration at which inhibition is half-maximal) in test [2] (Homo sapiens, NFF, mean ± SD, read-out: IC50 NFF) was more than 75 µM. For the same compound, in test [1], the clinical failure rates is on record as 40–70%.

Take `COc1ccc(Nc2cc(C)nc(N3CCN(C(=O)Nc4cccc(OC)c4)CC3)n2)cc1` [SN00793512, COc1ccc(cc1)Nc1cc(C)nc(n1)N1CCN(CC1)C(=O)Nc1cccc(OC)c1]: the concentration for half-maximal inhibition (IC50) in test [3] (setting [9]) turned out to be 8.74 µM; in test [3] (setting [10]) it was 8.63 ± 1.91 µM. For the same compound, the inhibition (usually the relative decrease from the control value, in per cent) at 50 µM in test [4] was 16.8%; in test [5] it was 6.36%; in test [6], 4.81%; in test [7], 3.7%. Further, the inhibition at 20 µM in test [2] (Homo sapiens, NFF) amounted to 35.2 ± 2.5%. In test [2], the “SI (48h Gd)” value was more than 2. For the same compound, the inhibition at 10 µM in test [8] (setting [11]) is 50.6%; in test [8] (setting [12]), 48.1%; in test [8] (setting [13]), 49.3%; in test [8] (setting [14]) it was 88.7%; in test [8] (setting [15]), 84.5%; in test [8] (setting [16]), 86.6%.

Consider `COc1ccc(NC(=O)c2ccc(-c3cc(NC4CCCCC4)ncn3)cc2)cc1` [SN00794765, COc1ccc(cc1)NC(=O)c1ccc(cc1)c1ncnc(NC2CCCCC2)c1], for which the IC50 in test [3] (setting [9]) and in test [3] (setting [10]) was more than 10 µM in each case. Also, the inhibition at 50 µM was -0.4% in test [4], 2.05% in test [5], 1.61% in test [6] and 3.31% in test [7]. Moreover, in test [2] (Homo sapiens, NFF), the inhibition at 20 µM is 23.1 ± 8.6%. The inhibition at 10 µM was 29.5% in test [8] (setting [11]); 4.7% in test [8] (setting [12]); 17.1% in test [8] (setting [13]); 63.5% in test [8] (setting [14]); 38.6% in test [8] (setting [15]); 51% in test [8] (setting [16]).

Turning to `O=C(Cc1csc2nc(-c3ccccc3)cn12)Nc1ccc(Cl)cc1` [SN00796218, Clc1ccc(cc1)NC(=O)Cc1csc2nc(cn12)c1ccccc1], the IC50 in test [3] (setting [9]) and in test [3] (setting [10]) was more than 10 µM each time. Further, the inhibition at 50 µM is 4.35% in test [4], -2.23% in test [5], 3.63% in test [6] and 3.03% in test [7]. Besides, the inhibition at 20 µM in test [2] (Homo sapiens, NFF) was 29.7 ± 10.3%. Also, the inhibition at 10 µM turned out to be 47.2% in test [8] (setting [11]); 48% in test [8] (setting [12]); 47.6% in test [8] (setting [13]); 59.9% in test [8] (setting [14]); 75.5% in test [8] (setting [15]); 67.7% in test [8] (setting [16]).

`Cn1nccc1-c1cccc(-c2noc(-c3cccc(F)c3)n2)c1` [SN00798315, Fc1cccc(c1)c1onc(n1)c1cccc(c1)c1ccnn1C]: the IC50 is more than 10 µM in test [3] (setting [9]) and 4.74 ± 6.4 µM in test [3] (setting [10]). The inhibition at 50 µM in test [4] is 1.7%; in test [5], 1.07%; in test [6], 9.56%; in test [7] it was 2.55%. In addition, in test [2] (Homo sapiens, NFF), the inhibition at 20 µM is -9 ± 1.9%. Also, the “SI (48h Gd)” value in test [2] was more than 4. Further, the inhibition at 10 µM in test [8] (setting [11]) came to 24.1%; in test [8] (setting [12]) it was 11.1%; in test [8] (setting [13]), 17.6%; in test [8] (setting [14]) it was 66.9%; in test [8] (setting [15]), 61.2%; in test [8] (setting [16]), 64%.

With `Cc1cccc(CNS(=O)(=O)c2cc(-c3csc(C)n3)sc2C)c1` [SN00798431, Cc1cccc(CNS(=O)(=O)c2cc(sc2C)c2csc(C)n2)c1], the IC50 was more than 10 µM in test [3] (setting [9]) and 5.93 ± 5.7 µM in test [3] (setting [10]). Besides, the inhibition at 50 µM was 42.5% in test [4], 13.3% in test [5], 13.7% in test [6] and -0.77% in test [7]. For the same compound, the inhibition at 20 µM in test [2] (Homo sapiens, NFF) came out at 19.3 ± 27%. Moreover, the “SI (48h Gd)” value in test [2] is recorded as more than 3. The inhibition at 10 µM in test [8] (setting [11]) came to 30.2%; in test [8] (setting [12]), 12.3%; in test [8] (setting [13]), 21.2%; in test [8] (setting [14]), 59.2%; in test [8] (setting [15]), 68.1%; in test [8] (setting [16]) it was 63.6%.

In the case of `Cc1ccc(C(=O)Nc2cc(-c3nc(C)cs3)sc2C)cc1` [SN00798457, Cc1ccc(cc1)C(=O)Nc1cc(sc1C)c1scc(C)n1], the IC50 in test [3] (setting [9]) and in test [3] (setting [10]) was more than 10 µM in each case. Further, the inhibition at 50 µM was -2.12% in test [4], -16.6% in test [5], 0.63% in test [6] and 1.98% in test [7]. For the same compound, in test [2] (Homo sapiens, NFF), the inhibition at 20 µM stood at 16.3 ± 20.4%. Besides, the inhibition at 10 µM in test [8] (setting [11]) is 39.3%; in test [8] (setting [12]), 16.7%; in test [8] (setting [13]), 28%; in test [8] (setting [14]), 60%; in test [8] (setting [15]), 52.2%; in test [8] (setting [16]), 56.1%.

`CC(C)c1ccc(Nc2ncccc2S(=O)(=O)N2CCCC2)cc1` [SN00799289, CC(C)c1ccc(cc1)Nc1ncccc1S(=O)(=O)N1CCCC1]: the IC50 is more than 10 µM in test [3] (setting [9]) and 3.36 ± 1.52 µM in test [3] (setting [10]). For the same compound, the inhibition at 50 µM in test [4] is 4.74%; in test [5], 3.06%; in test [6] it was 14.4%; in test [7], 1.89%. In test [2] (Homo sapiens, NFF), the inhibition at 20 µM is 11.4 ± 13.4%. The “SI (48h Gd)” value in test [2] is recorded as more than 5. Besides, the inhibition at 10 µM stood at 43.9% in test [8] (setting [11]); 10.1% in test [8] (setting [12]); 27% in test [8] (setting [13]); 73.3% in test [8] (setting [14]); 41.7% in test [8] (setting [15]); 57.5% in test [8] (setting [16]).

As for `CCS(=O)(=O)CCn1c([N+](=O)[O-])cnc1C` [tinidazole], the clinical failure rates in test [1] is 40–70%.
